Laboratory results taken from ChEMBL document CHEMBL3046512, “Flubendiamide, a Novel Insecticide Highly Active against Lepidopterous Insect Pests” (J Pestic Sci, 2005).
Activity calls are given as the source filed them. The rule behind the calls is not given here.

Key:
[1] = tested on: Plutella xylostella; assay: Insecticidal activity against third-instar larvae of Plutella xylostella (diamondback moth) in cabbage leaf disk after 4 to 7 days by leaf dipping method; format: functional, organism-based
[2] = tested on: Spodoptera litura; assay: Insecticidal activity against fifth-instar larvae of Spodoptera litura in cabbage leaf disk after 4 to 7 days by leaf dipping method; format: functional, organism-based
[3] = tested on: Spodoptera litura; assay: Insecticidal activity against sixth-instar larvae of Spodoptera litura assessed as sustained body contraction at 2.4 ug/larvae after 24 hr; format: functional, organism-based
[4] = tested on: Plutella xylostella; assay: Insecticidal activity against third-instar larvae of synthetic pyrethroid-resistant Plutella xylostella (diamondback moth) in cabbage leaf disk after 4 to 7 days by leaf dipping method; format: functional, organism-based
[5] = tested on: Plutella xylostella; assay: Insecticidal activity against third-instar larvae of insecticide-resistant Plutella xylostella (diamondback moth) in cabbage leaf disk after 4 to 7 days by leaf dipping method; format: functional, organism-based
[6] = tested on: Spodoptera litura; assay: Insecticidal activity against sixth-instar larvae of Spodoptera litura assessed as sustained body contraction at 0.24 ug/larvae after 24 hr; format: functional, organism-based
[7] = tested on: Spodoptera litura; assay: Insecticidal activity against fifth-instar larvae of Spodoptera litura assessed as thickening and shortening without convulsion at 100 mg/l after 24 hr; format: functional, organism-based
[8] = tested on: Spodoptera litura; assay: Insecticidal activity against fifth-instar larvae of Spodoptera litura assessed as gradual contraction of insect body at 100 mg/l after 24 hr; format: functional, organism-based
[9] = tested on: Encarsia formosa; assay: Toxicity in adult Encarsia formosa after 2 days by dry film method; format: organism-based; settings: in vivo, 48 h
[10] = tested on: Coccinella septempunctata brucki; assay: Toxicity in adult of Coccinella septempunctata brucki after 4 days by insect dipping method; format: organism-based; settings: in vivo, 96 h
[11] = tested on: Harmonia axyridis; assay: Toxicity in adult of Harmonia axyridis after 4 days by insect dipping method; format: organism-based; settings: in vivo, 96 h
[12] = tested on: Adoxophyes honmai; assay: Insecticidal activity against fourth-instar larvae of Adoxophyes honmai in tea leaf; format: functional, organism-based
[13] = tested on: Homona magnanima; assay: Insecticidal activity against fourth-instar larvae of Homona magnanima in tea leaf; format: functional, organism-based
[14] = tested on: Chilo suppressalis; assay: Insecticidal activity against third-instar larvae of Chilo suppressalis (rice stem borer) […]; format: functional, organism-based
[15] = tested on: Hellula undalis; assay: Insecticidal activity against third-instar larvae of Hellula undalis in cabbage leaf; format: functional, organism-based
[16] = tested on: Pieris rapae crucivora; assay: Insecticidal activity against second to third-instar larvae of Pieris rapae crucivora; format: functional, organism-based
[17] = tested on: Agrotis segetum; assay: Insecticidal activity against two to third-instar larvae of Agrotis segetum in cabbage leaf; format: functional, organism-based
[18] = tested on: Helicoverpa armigera; assay: Insecticidal activity against Helicoverpa armigera; format: functional, organism-based
[19] = tested on: Autographa nigrisigna; assay: Insecticidal activity against third-instar larvae of Autographa nigrisigna in cabbage leaf; format: functional, organism-based
[20] = tested on: Misumenops; assay: Toxicity in adult of Misumenops tricuspidatus after 4 days by insect dipping method; format: organism-based; settings: in vivo, 96 h
[21] = tested on: Pardosa pseudoannulata; assay: Toxicity in adult of Pardosa pseudoannulata after 4 days by insect dipping method; format: organism-based; settings: in vivo, 96 h
[22] = tested on: Phytoseiulus persimilis; assay: Toxicity in adult of Phytoseiulus persimilis after 2 days by spraying on food and insect method; format: organism-based; settings: in vivo, 48 h
[23] = tested on: Neoseiulus cucumeris; assay: Toxicity in adlult of Neoseiulus cucumeris after 2 days by spraying on food and insect method; format: organism-based; settings: in vivo, 48 h
[24] = tested on: Aphidoletes aphidimyza; assay: Toxicity in larvae of Aphidoletes aphidimyza after 2 days by spraying on food and insect method; format: organism-based; settings: in vivo, 48 h
[25] = tested on: Chrysoperla carnea; assay: Toxicity in larvae of Chrysoperla carnea after 2 days by spraying on food and insect method; format: organism-based; settings: in vivo, other, 48 h
[26] = tested on: Orius strigicollis; assay: Toxicity in adult of Orius strigicollis after 2 days by spraying on food and insect method; format: organism-based; settings: in vivo, 48 h
[27] = tested on: Cotesia glomerata; assay: Toxicity in adult Cotesia glomerata after 2 days by dry film method; format: organism-based; settings: in vivo, 48 h
[28] = tested on: Aphidius colemani; assay: Toxicity in adlult of Aphidius colemani after 2 days by dry film method; format: organism-based; settings: in vivo, 48 h
[29] = tested on: Plutella xylostella; assay: Insecticidal activity against third-instar larvae of benzoylphenylurea-resistant Plutella xylostella (diamondback moth) in cabbage leaf disk after 4 to 7 days by leaf dipping method; format: functional, organism-based
[30] = tested on: Plutella xylostella; assay: Insecticidal activity against third-instar larvae of carbamate-resistant Plutella xylostella (diamondback moth) in cabbage leaf disk after 4 to 7 days by leaf dipping method; format: functional, organism-based
[31] = tested on: Plutella xylostella; assay: Insecticidal activity against third-instar larvae of organophosphate-resistant Plutella xylostella (diamondback moth) in cabbage leaf disk after 4 to 7 days by leaf dipping method; format: functional, organism-based

Cc1cc(C(F)(C(F)(F)F)C(F)(F)F)ccc1NC(=O)c1cccc(I)c1C(=O)NC(C)C showed an EC50 [1] of 0.1 mgAi/L and an EC50 [2] of 0.3 mgAi/L.

Cc1cc(OC(F)(F)F)ccc1NC(=O)c1cccc(I)c1C(=O)NC(C)C gave an EC50 [1] of 0.3 mgAi/L and an EC50 [2] of 1 mgAi/L.

Work on Cc1cc(Cl)ccc1NC(=O)c1cccc(Br)c1C(=O)NC(C)C yielded an EC50 [1] of 1 mgAi/L and an EC50 [2] of 10 mgAi/L.

Cc1cc(Cl)ccc1NC(=O)c1ccccc1C(=O)NC(C)C showed an EC50 [1] of 3 mgAi/L and an EC50 [2] of 10 mgAi/L.

In the case of Cc1cc(Cl)ccc1NC(=O)c1cccc([N+](=O)[O-])c1C(=O)NC(C)C, the EC50 [1] was 10 mgAi/L and the EC50 [2] was 10 mgAi/L.

With Cc1cc(Cl)ccc1NC(=O)c1cccc(Cl)c1C(=O)NC(C)C the EC50 [1] was 1 mgAi/L and the EC50 [2] was 10 mgAi/L.

For Cc1cc(Cl)ccc1NC(=O)c1ccc(Cl)cc1C(=O)NC(C)C, the EC50 [1] was 5 mgAi/L and the EC50 [2] was > 500 mgAi/L.

For Cc1cc(Cl)ccc1NC(=O)c1cc(Cl)ccc1C(=O)NC(C)C, the EC50 [1] was 50 mgAi/L and the EC50 [2] was > 500 mgAi/L.

Cc1cc(Cl)ccc1NC(=O)c1c(Cl)cccc1C(=O)NC(C)C was tested, and the EC50 [1] was 10 mgAi/L and the EC50 [2] was > 500 mgAi/L.

Cc1cc(Cl)ccc1NC(=O)c1cccc(F)c1C(=O)NC(C)C was tested, and the EC50 [1] was 1 mgAi/L and the EC50 [2] was > 500 mgAi/L.

For Cc1cc(Cl)ccc1NC(=O)c1cccc(I)c1C(=O)NC(C)C, the EC50 [1] was 0.3 mgAi/L and the EC50 [2] was 3 mgAi/L.

Compound Cc1c(Cl)cccc1NC(=O)c1cccc(I)c1C(=O)NC(C)C has an EC50 [1] of 3 mgAi/L and an EC50 [2] of 10 mgAi/L.

Work on Cc1ccc(Cl)cc1NC(=O)c1cccc(I)c1C(=O)NC(C)C yielded an EC50 [1] of 3 mgAi/L and an EC50 [2] of 10 mgAi/L.

With COc1ccc(NC(=O)c2cccc(I)c2C(=O)NC(C)C)c(C)c1 the EC50 [1] was 10 mgAi/L and the EC50 [2] was 30 mgAi/L.

Compound Cc1cc(C(F)(C(F)(F)F)C(F)(F)F)ccc1NC(=O)c1cccc(I)c1C(=O)NC(C)(C)C has an EC50 [1] of 0.3 mgAi/L and an EC50 [2] of 0.3 mgAi/L.

With CC(=O)NCC(C)(C)NC(=O)c1c(I)cccc1C(=O)Nc1ccc(C(F)(C(F)(F)F)C(F)(F)F)cc1C the EC50 [2] was 0.1 mgAi/L.

CC(C)[C@@]1(O)[C@@H](OC(=O)c2cc[nH]c2)[C@@]2(O)[C@]3(C)C[C@@]4(O)O[C@@]5([C@H](O)[C@@H](C)CC[C@]35O)[C@@]2(O)[C@@]41C was tested, and the Activity [3] was “Active”.

With CC1(C)C(/C=C(\Cl)C(F)(F)F)C1C(=O)OC(C#N)c1cccc(Oc2ccccc2)c1 (stereo unspecified) [CYHALOTHRIN] the EC50 [4] was 869 mgAi/L and the EC50 [1] was 0.24 mgAi/L.

In the case of Cc1cc(C(F)(C(F)(F)F)C(F)(F)F)ccc1NC(=O)c1cccc(I)c1C(=O)NC(C)(C)CS(C)(=O)=O [FLUBENDIAMIDE], the EC50 [5] was 0.002 mgAi/L, the Activity [6] was “Active” and the Activity [7] was “Active”. The Activity [8] was “Active”, the EC50 [1] was 0.001 mgAi/L and the EC50 [2] was 0.03 mgAi/L. For the same compound, the EC30 [9] was > 400 mgAi/L, the EC30 [10] was > 200 mgAi/L and the EC30 [11] was > 200 mgAi/L. The EC50 [12] was 0.38 mgAi/L, the EC50 [13] was 0.58 mgAi/L and the EC50 [14] was < 0.01 mgAi/L. For the same compound, the EC50 [15] was 0.01 mgAi/L, the EC50 [16] was 0.03 mgAi/L and the EC50 [17] was 0.18 mgAi/L. For the same compound, the Activity [18] was “Active”, the EC50 [19] was 0.02 mgAi/L and the EC30 [20] was > 200 mgAi/L. The EC30 [21] was > 100 mgAi/L, the EC30 [22] was > 200 mgAi/L and the EC30 [23] was > 200 mgAi/L. The EC30 [24] was > 100 mgAi/L, the EC30 [25] was > 100 mgAi/L and the EC30 [26] was > 100 mgAi/L. For the same compound, the EC30 [27] was > 100 mgAi/L and the EC30 [28] was > 400 mgAi/L.

In the case of O=C(NC(=O)c1c(F)cccc1F)Nc1ccc(Oc2ccc(C(F)(F)F)cc2Cl)cc1F [FLUFENOXURON], the EC50 [29] was 233 mgAi/L and the EC50 [1] was 0.05 mgAi/L.

CNC(=O)ON=C(C)SC [METHOMYL] gave an EC50 [1] of 14.5 mgAi/L and an EC50 [30] of 287 mgAi/L.

Compound CCCSP(=S)(OCC)Oc1ccc(Cl)cc1Cl (stereo unspecified) [PROTHIOFOS] has an EC50 [1] of 3.78 mgAi/L and an EC50 [31] of 24.2 mgAi/L.
